Measured values as given in patent US20260078108A1, “SOLID FORMS OF A ROCK INHIBITOR” (REDX PHARMA PLC, priority 2022, published 2026).
≈ marks a conversion by molar mass, not a printed value. Structures can show the parent of a compound that is named as a salt.

Columns and labels:
[1] = Solubility testing in water, SGF, FaSSIF, FeSSIF at 37° C.; type: physicochemical; conditions: for Solubility / Solubility (mg/mL): 37° C.
Procedure: About 15 mg of sample was weighed into each sample vial and then 3.0 mL of water, simulated gastric fluid (SGF), Fasted State Simulated Intestinal Fluid (FaSSIF) or Fed State Simulated Intestinal Fluid (FeSSIF) media was added. Samples were prepared in triplicate for each media. The suspensions were kept shaking at 37° C. for up to 24 h. At 0.5, 2 and 24 h, suspensions were filtered and the filtrate was analyzed by HPLC.

[2] = 7-day stability testing of solid forms (HPLC purity, XRPD); type: physicochemical
Procedure: About 10 mg of freebase Form I, HCl salt Form II, Succinate Form I and received HCl salt Form I were placed at 60° C./capped and 40° C./75% RH (open), respectively. Samples were prepared in duplicate for each condition. At day 0 and day 7, the samples were analyzed by HPLC and XRPD to check the purity and crystal form, respectively.

[3] = tested on: animal models of inflammatory bowel disease; conditions: multiple animal models of inflammatory bowel disease; preclinical data, background; cited from earlier work
[4] = FaSSIF (pH of media 6.5), 0.5 h
[5] = FeSSIF (pH of media 5.0), 0.5 h
[6] = pH of sample in FaSSIF (pH of media 6.5), 0.5 h
[7] = pH of sample in FaSSIF (pH of media 6.5), 2 h
[8] = pH of sample in FaSSIF (pH of media 6.5), 24 h
[9] = pH of sample in FeSSIF (pH of media 5.0), 0.5 h
[10] = pH of sample in FeSSIF (pH of media 5.0), 2 h
[11] = pH of sample in FeSSIF (pH of media 5.0), 24 h
[12] = pH of sample in SGF (pH of media 1.2), 0.5 h
[13] = pH of sample in SGF (pH of media 1.2), 2 h
[14] = pH of sample in SGF (pH of media 1.2), 24 h
[15] = pH of sample in Water (pH of media 7.9), 0.5 h
[16] = pH of sample in Water (pH of media 7.9), 2 h
[17] = pH of sample in Water (pH of media 7.9), 24 h

Solubility [1, 4] [µg/mL]	Solubility ([1]; FaSSIF (pH of media 6.5), 2 h) [µg/mL]	Solubility [1, 5] [µg/mL]	Solubility ([1]; FeSSIF (pH of media 5.0), 2 h) [µg/mL]	Solubility ([1]; FeSSIF (pH of media 5.0), 24 h) [µg/mL]	Solubility ([1]; SGF (pH of media 1.2), 0.5 h) [µg/mL]	Solubility ([1]; SGF (pH of media 1.2), 2 h) [µg/mL]	Solubility ([1]; SGF (pH of media 1.2), 24 h) [µg/mL]	pH [1, 6]	pH [1, 7]	pH [1, 8]	pH [1, 9]	pH [1, 10]	pH [1, 11]	pH [1, 12]	pH [1, 13]	pH [1, 14]	pH [1, 15]	pH [1, 16]	pH [1, 17]	SMILES	other results
23	5	83	91	66	780	841	1355	6.4	6.4	6.4	4.9	4.9	4.9	1.4	1.4	1.4	5.6	5.7	5.8	NCc1ccc(C(=O)Nc2ccncc2F)cc1-c1cccc(C(=O)Nc2ccc(SC[C@H]3CCOC3=O)cc2)c1 (stereo in doubt) [HCl salt Form I]	Solubility (mg/mL) ([1]; FaSSIF (pH of media 6.5), 24 h): <LOD; Solubility ([1]; Water (pH of media 7.9), 0.5 h): 680 µg/mL; Solubility ([1]; Water (pH of media 7.9), 2 h): 771 µg/mL; Solubility ([1]; Water (pH of media 7.9), 24 h): 1411 µg/mL
																				NCc1ccc(C(=O)Nc2ccncc2F)cc1-c1cccc(C(=O)Nc2ccc(SCC3CCOC3=O)cc2)c1 (stereo not drawn) [Compound A, 4-(aminomethyl)-N-(3-fluoropyridin-4-yl)-3-{3-[(4-{[(2-oxooxolan-3-yl)methyl]sulfanyl}phenyl)carbamoyl]phenyl}benzamide]	Stability (in words) ([2]; chemical stability of solid forms, comparison): low chemical stability; Anti-fibrotic therapeutic effects [3]: strong anti-fibrotic therapeutic effects
14 (≈ 24.5 µM)	6 (≈ 10.5 µM)	183 (≈ 321 µM)	126 (≈ 221 µM)	59 (≈ 103 µM)	~5000 (≈ 8760 µM)	~5000 (≈ 8760 µM)	~5000 (≈ 8760 µM)	6.4	6.4	6.5	5.0	5.0	5.0	1.2	1.4	1.4	7.9	7.6	8.7	NCc1ccc(C(=O)Nc2ccncc2F)cc1-c1cccc(C(=O)Nc2ccc(SC[C@H]3CCOC3=O)cc2)c1 [Freebase Form I]	Purity (area %) ([2]; Day 0, HPLC): 96.89 area %; Decrease in purity versus Day 0 ([2]; Day 7, 40° C./75% RH (open)): 3.0 area %; XRPD (crystal form) ([2]; Day 7, 40° C./75% RH (open)): No change; Purity (area %) ([2]; Day 7, 40° C./75% RH (open), HPLC): 93.87 area %; Decrease in purity versus Day 0 ([2]; Day 7, 60° C./capped): 1.9 area %; XRPD (crystal form) ([2]; Day 7, 60° C./capped): No change; Purity (area %) ([2]; Day 7, 60° C./capped, HPLC): 95.01 area %; Solubility ([1]; FaSSIF (pH of media 6.5), 24 h): 1 µg/mL (≈ 1.75 µM); Solubility (mg/mL) ([1]; Water (pH of media 7.9), 0.5 h): <LOD; Solubility (mg/mL) ([1]; Water (pH of media 7.9), 2 h): <LOD; Solubility (mg/mL) ([1]; Water (pH of media 7.9), 24 h): <LOD
